The target in the assay is T1, IP receptor (Homo sapiens, UniProt P43119).
T1 construct: expressed in transfected cells; host or cells: CHO cells (CHO-IP)
The assay is described as follows: cAMP accumulation in CHO cells stably expressing the IP receptor (AlphaScreen). Format: cell-based. The conditions noted are these: 1 hour at room temperature. The method, then: Activity of compounds at the IP receptor (IP receptor) is assessed by measuring cAMP accumulation in CHO cells stably expressing the IP receptor (CHO-IP) using the PerkinElmer AlphaScreen assay. This technology measures the endogenous production of cAMP, in a non-radioactive luminescence proximity homogenous assay. A biological reaction occurs between streptavidin coated donor beads, biotinylated cAMP and anti-cAMP acceptor beads, bringing the donor and acceptor beads close enough together so that upon excitation a fluorescence signal is produced. On production of endogenous cAMP, competition between the biotinylated cAMP and cellular-derived cAMP causes a reduction in the fluorescent signal. The reduction in signal is proportional to the amount of cAMP being produced, thus it is possible to quantify the amount of cAMP being produced on stimulation with agonist.
Test and reference compounds are prepared at 100× [final] in 100% DMSO, and diluted 1:3 using a Biomek Fx (Beckman Coulter). This is followed by an intermediate dilution to give 5× [final] in assay buffer (HBSS containing 5 mM HEPES, 0.1% (w/v) BSA). […] The assay plate is then incubated at room temperature in the dark, for 60 minutes with gentle shaking, and read on the Envision plate reader (Perkin Elmer). […]
A general note: Cyclic AMP is a second messenger, typically raised through Gs and lowered through Gi signalling.

pEC50: −log10 of the molar value.

Broadly, the pEC50 is −log10 of the EC50, conventionally taken in molar units. A high value points to a small EC50.

T1 sequence (P43119 whole entry): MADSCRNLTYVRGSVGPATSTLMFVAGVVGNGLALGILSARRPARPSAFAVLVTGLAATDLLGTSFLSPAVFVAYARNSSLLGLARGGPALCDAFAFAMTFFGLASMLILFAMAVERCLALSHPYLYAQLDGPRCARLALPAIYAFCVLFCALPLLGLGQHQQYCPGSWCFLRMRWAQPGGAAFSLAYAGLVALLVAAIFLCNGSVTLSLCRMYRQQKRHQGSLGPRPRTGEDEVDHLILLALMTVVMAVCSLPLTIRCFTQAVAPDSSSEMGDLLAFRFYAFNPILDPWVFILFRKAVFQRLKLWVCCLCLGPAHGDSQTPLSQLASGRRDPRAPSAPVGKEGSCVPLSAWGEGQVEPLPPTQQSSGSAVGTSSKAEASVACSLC

In the case of `Cc1ccc(-c2cc3c(nc2-c2ccc(C)cc2)CCCN3CCCCCCC(=O)O)cc1` [Example 1, 7-(6,7-Di-p-tolyl-3,4-dihydro-1,5-naphthyridin-1(2H)-yl)heptanoic acid], the pEC50 is 9.34.

The values are drawn from patent US9604981B2, “IP receptor agonist heterocyclic compounds” (Novartis AG, priority 2013, dated 2017).
